The results in this text go back to patent US5017581A, “Pyridonecarboxylic acids and their anti-bacterial compositions” (Shionogi & Co., Ltd., priority 1988, dated 1991).

The nature of data set [1]: Convulsion and psychotropic action in mice after oral administration. The format is in vivo. The note with it: orally, dose of 10 mg.
For data set [2], the system named is Staphylococcus aureus SR 14 (R). As to the kind of experiment: Antibacterial spectrum, MIC (method of the Japan Society of Chemotherapy), B. Type of data set: cell-based. The note with it: 10^6 cells/ml, read-out: MIC (minimum grouth inhibitory concentration). As to the method:
The antibacterial activity was determined by measuring minimum grouth inhibitory concentrations (MICs) in accordance with the method as designated by the Japan Society of Chemotherapy.
A, B, C, and D in the table indicate the following meanings:
B: Staphylococcus aureus SR 14 (R)
The test microorganisms were used at 10^6 cells/ml.

In data set [3] the test system is Escherichia coli 7437. Put plainly: Antibacterial spectrum, MIC (method of the Japan Society of Chemotherapy), C. Type of data set: cell-based. The note with it: 10^6 cells/ml, read-out: MIC (minimum grouth inhibitory concentration). As to the method:
The antibacterial activity was determined by measuring minimum grouth inhibitory concentrations (MICs) in accordance with the method as designated by the Japan Society of Chemotherapy. A, B, C, and D in the table indicate the following meanings: C: Escherichia coli 7437 The test microorganisms were used at 10^6 cells/ml.

In data set [4] the test system is Staphylococcus aureus Smith. Put plainly: Antibacterial spectrum, MIC (method of the Japan Society of Chemotherapy), A. Type of data set: cell-based. The note with it: 10^6 cells/ml, read-out: MIC (minimum grouth inhibitory concentration). As to the method: The antibacterial activity was determined by measuring minimum grouth inhibitory concentrations (MICs) in accordance with the method as designated by the Japan Society of Chemotherapy. A, B, C, and D in the table indicate the following meanings: A: Staphylococcus aureus Smith The test microorganisms were used at 10^6 cells/ml.

The test system of data set [5] is Escherichia coli PC 51149 B. Put plainly: Antibacterial spectrum, MIC (method of the Japan Society of Chemotherapy), D. Type of data set: cell-based. The note with it: PC51149B, 10^6 cells/ml, read-out: MIC (minimum grouth inhibitory concentration). As for the experimental part: The antibacterial activity was determined by measuring minimum grouth inhibitory concentrations (MICs) in accordance with the method as designated by the Japan Society of Chemotherapy. A, B, C, and D in the table indicate the following meanings: D: Escherichia coli PC 51149 B The test microorganisms were used at 10^6 cells/ml.

≈ marks a conversion by molar mass, not a printed value. A value given as a limit tells only on which side of the number the result lay.

As to `C=C1CN(c2c(F)cc3c(=O)c(C(=O)O)cn(C4CC4)c3c2F)CC1N` (stereo not drawn) [Compound I-1, 1-Cyclopropyl-6,8-difluoro-7-(3-amino-4-methylenepyrrolidin-1-yl)-1,4-dihydro-4-oxo-3-quinolinecarboxylic acid], in data set [1], the “convulsion and psychotropic action” value is on record as “neither convulsion nor psychotropic action was observed”. Besides, the MIC is 0.05 µg/mL (≈ 0.138 µM) in data set [2], less than 0.003 µg/mL in data set [3], 0.05 µg/mL (≈ 0.138 µM) in data set [4] and less than 0.003 µg/mL in data set [5].
With `C=C1CN(c2c(F)cc3c(=O)c(C(=O)O)cn(C4CC4)c3c2Cl)CC1N` (stereo not drawn) [Compound I-2, 1-Cyclopropyl-8-chloro-6-fluoro-7-(3-amino-4-methylenepyrrolidin-1-yl)-1,4-dihydro-4-oxo-3-quinolinecarboxylic acid], the MIC in data set [2] was 0.02 µg/mL (≈ 0.0529 µM); in data set [3] it was less than 0.003 µg/mL; in data set [4], 0.01 µg/mL (≈ 0.0265 µM); in data set [5] it was less than 0.003 µg/mL.
Regarding `C=C1CN(c2c(F)c(N)c3c(=O)c(C(=O)O)cn(C4CC4)c3c2F)CC1N` (stereo not drawn) [Compound I-3, 1-Cyclopropyl-5-amino-6,8-difluoro-7-(3-amino-4-methylenepyrrolydin-1-yl)-1,4-dihydro-4-oxo-3-quinolinecarboxylic acid], the MIC is 0.05 µg/mL (≈ 0.133 µM) in data set [2], less than 0.003 µg/mL in data set [3], 0.02 µg/mL (≈ 0.0531 µM) in data set [4] and less than 0.003 µg/mL in data set [5].
`C=C1CN(c2nc3c(cc2F)c(=O)c(C(=O)O)cn3C2CC2)CC1N` (stereo not drawn) [Compound I-4, 1-Cyclopropyl-6-fluoro-7-(3-amino-4-methylenepyrrolidin-1-yl)-1,4-dihydro-4-oxo-1,8-naphthyridine-3-carboxylic acid]: the MIC in data set [2] is 0.1 µg/mL (≈ 0.29 µM); in data set [3], less than 0.003 µg/mL; in data set [4] it was 0.1 µg/mL (≈ 0.29 µM); in data set [5] it was 0.006 µg/mL (≈ 0.0174 µM).
Take `C=C1CN(c2c(F)cc3c(=O)c(C(=O)O)cn(C4CC4)c3c2F)CC1NC` (stereo not drawn) [Compound I-5, 1-Cyclopropyl-6,8-difluoro-7-(3-methylamino-4-methylenepyrrolidin-1-yl)-1,4-dihydro-4-oxo-3-quinolinecarboxylic acid]: the MIC in data set [2] is 0.05 µg/mL (≈ 0.133 µM); in data set [3] it was less than 0.003 µg/mL; in data set [4], 0.05 µg/mL (≈ 0.133 µM); in data set [5], 0.006 µg/mL (≈ 0.016 µM).
